Measurements: patent US20240239790A1, “7-Morpholino-1,6-Naphthyridin-5-yl Derivatives and Pharmaceutical Compositions Thereof Useful as DNA-PK Inhibitor” (adMare Therapeutics Society, priority 2021, published 2024)
Like-named read-outs stand apart in the source and are kept apart here.

Legend:
DNA-PK = molecular target: T1, DNA-PK (Homo sapiens, UniProt P78527); experiment: DNA-PK Assay for Biochemical Enzymatic Inhibition (ADP Glo Kinase assay); details: DNA-PK enzyme
T1 construct: purchased Invitrogen PR9107A
Protocol: A biochemical assay was performed to identify IC50 values against DNA-PK activity in a two-step reaction with a kinase reaction followed by ADP Glo™ Kinase assay Kit (Promega V9102).
Three-fold serial dilutions of compounds in DMSO were prepared in kinase assay buffer (50 mM HEPES pH 7.5, 20 mM MgCl2, 100 mM KCl, 50 μM DTT, 10 μg/ml calf thymus DNA, 0.01% Tween 20). Kinase assay buffer was used to prepare compound treatments to 0.02% DMSO (dimethyl sulphoxide) content. DMSO controls were prepared to produce a maximum and minimum luminescence signal for normalization. Substrate (Anaspec, AS-60210-5) and ATP (Promega V9102) and ATP mix was prepared by dilution in kinase assay buffer for 434.4 μM and 64.4 μM final assay concentrations, respectively. Compounds and control were added to 25 ng DNA-PK enzyme (Invitrogen, PR9107A) diluted in kinase buffer in assay plate (Corning 267459) and incubated for 15 minutes at room temperature prior to addition of substrate and ATP mix.
Throughout the assay, each time a reagent was added to the microplate, it was centrifuged for 1 minute at 1300 rcf. All reagents were added, and incubations carried out at room temperature. The reaction was then incubated for 60 minutes. ADP-ATP standards at 0, 4, 10, 40, 80, and 100% ADP (prepared as specified in the ADP Glo™ Kinase assay kit) were also added to the microplate at a volume equal to the total kinase reaction. The ADP Glo™ Kinase Assay kit was then used to quantify DNA-PK activity: following the 60-minute incubation, a 1:1 volume of ADP Glo reagent was added to all wells, then following a further 45-minute incubation, a 1:1 volume of Kinase Detection Reagent was added to all wells. After this two-step assay, plates were incubated in a Synergy-Neo2 plate reader for 30 minutes with gentle shaking, followed by endpoint luminescent read Luminescence data was normalized by subtracting the background signal and expressing all background-adjusted values as a percentage of the average maximum signal. The data was then expressed as percent inhibition by subtracting from 100% (i.e. maximum luminescent signal will be 0% inhibition) and the resulting data plotted against ten concentration points on a logarithmic scale, using GraphPad Prism. Non-linear regression analysis was performed on each concentration response curve and the log [inhibitor] vs response—variable slope (four parameters) equation was selected to generate IC50 values.

[1] = molecular target: T2, DNA-PK phosphorylation at Serine 2056 (Homo sapiens, UniProt P78527); experiment: Cellular Assay for Inhibition of DNA-PK Phosphorylation at Serine 2056 in FaDu cells (sandwich ELISA, neocarzinostatin); type: cell-based; details: pSer2056 DNA-PK
T2 construct: FaDu cells were purchased from ATCC; host or cells: FaDu
In short: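 pSer2056 and total DNA-PK were measured by sandwich ELISA in BCA-normalised FaDu lysates. Cells had 1 h compound exposure (0.3% DMSO), then 2 h with 1 μg/mL final neocarzinostatin. IC50 was fitted (variable slope) to % inhibition scaled against NCS-stimulated and DMSO-only controls.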

[2] = tested on: pH2AX induction in HCT116 ATM-/- multicellular tumour spheroids; experiment: Prodrug Radiation Sensitization in Multicellular Tumour Spheroids, inhibition of pH2AX induction following radiation; type: cell-based
In short: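 Endpoint: pH2AX (ser 139) or pDNA-PK (ser 2056) in cryosections fixed 1 or 2 h after 20 Gy, comparing oxygenated outer with hypoxic inner layers. Spheroids of ~0.5 mm (HCT116, FaDu; ATM-deficient cells used) held at 20% or 5% O2, 37 °C, stirred. Prodrug range 3.5 nM–10 μM.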

[3] = neocarzinostatin 1 μg/mL, Table 1

Molecule `Cn1cc([C@H]2CC[C@@H](Oc3nc(N4CCOCC4)cc4ncc(OCCN5CCOCC5)cc34)CC2)cn1` [Compound 6, 4-(5-(((1s,4s)-4-(1-methyl-1H-pyrazol-4-yl)cyclohexyl)oxy)-3-(2-morpholinoethoxy)-1,6-naphthyridin-7-yl)morpholine] has an IC50 (DNA-PK; Table 1) of 10 to 150 nM and an IC50 [1, 3] of 100 to 1000 nM.
In the case of `FC1(F)CN(c2cc3ncccc3c(O[C@H]3CC[C@@H](n4ccnc4)CC3)n2)CC(F)(F)O1` [Compound 13, 4-(5-(((1s,4s)-4-(1H-imidazol-1-yl)cyclohexyl)oxy)-1,6-naphthyridin-7-yl)-2,2,6,6-tetrafluoromorpholine], the IC50 (DNA-PK; Table 1) is reported as 10 to 150 nM.
Molecule `CN(C)C(=O)COc1ccc(N[C@H]2CC[C@@H](Oc3nc(N4CCOCC4)cc4ncccc34)CC2)nn1` [Compound 57, N,N-dimethyl-2-((6-(((1s,4s)-4-((7-morpholino-1,6-naphthyridin-5-yl)oxy)cyclohexyl)amino)pyridazin-3-yl)oxy)acetamide] has an IC50 (DNA-PK; Table 1) of 10 to 150 nM and an IC50 [1, 3] of 10000 to 30000 nM.
Molecule `COCC(=O)N[C@H]1CC[C@@H](Oc2nc(N3CCOCC3)cc3ncccc23)CC1` [Compound 105, 2-Methoxy-N-((1s,4s)-4-((7-morpholino-1,6-naphthyridin-5-yl)oxy)cyclohexyl)acetamide] has an IC50 (DNA-PK; Table 1) of 1 to 10 nM and an IC50 [1, 3] of 100 to 1000 nM.
With `CN(C)CC(=O)N[C@H]1CC[C@@H](Oc2nc(N3CCOCC3)cc3ncccc23)CC1` [Compound 106, 2-(Dimethylamino)-N-((1s,4s)-4-((7-morpholino-1,6-naphthyridin-5-yl)oxy)cyclohexyl)acetamide] the IC50 (DNA-PK; Table 1) was 10 to 150 nM.
With `N#CCC(=O)N[C@H]1CC[C@@H](Oc2nc(N3CCOCC3)cc3ncccc23)CC1` [Compound 107, 2-Cyano-N-((1s,4s)-4-((7-morpholino-1,6-naphthyridin-5-yl)oxy)cyclohexyl)acetamide] the IC50 (DNA-PK; Table 1) was 1 to 10 nM and the IC50 [1, 3] was 100 to 1000 nM.
`CN(C)C(=N[C@H]1CC[C@@H](Oc2nc(N3CCOCC3)cc3ncccc23)CC1)N(C)C` [Compound 129, 1,1,3,3-tetramethyl-2-((1s,4s)-4-((7-morpholino-1,6-naphthyridin-5-yl)oxy)cyclohexyl)guanidine] gave an IC50 (DNA-PK; Table 1) of 10 to 150 nM.
`O=C(NC1CCOCC1)[C@H]1CC[C@@H](Oc2nc(N3CCOCC3)cc3ncccc23)CC1` [Compound 154b, (1S,4S)-4-((7-morpholino-1,6-naphthyridin-5-yl)oxy)-N-(tetrahydro-2H-pyran-4-yl)cyclohexane-1-carboxamide] was tested, and the IC50 (DNA-PK; Table 1) was 10 to 150 nM.
`CC(C)(O)C#Cc1cnc2cc(N3CCOCC3)nc(O[C@H]3CC[C@@H](n4ccnc4)CC3)c2c1` [Compound 159, 4-(5-(((1s,4s)-4-(1H-imidazol-1-yl)cyclohexyl)oxy)-7-morpholino-1,6-naphthyridin-3-yl)-2-methylbut-3-yn-2-ol] showed an IC50 (DNA-PK; Table 1) of 10 to 150 nM.
Work on `CCOC(=O)c1cnc2cc(N3CCOCC3)nc(O[C@H]3CC[C@@H](n4ccnc4)CC3)c2c1` [Compound 163, ethyl 5-(((1s,4s)-4-(1H-imidazol-1-yl)cyclohexyl)oxy)-7-morpholino-1,6-naphthyridine-3-carboxylate] yielded an IC50 (DNA-PK; Table 1) of 10 to 150 nM and an IC50 [1, 3] of 1000 to 10000 nM.
`CCNC(=O)c1cnc2cc(N3CCOCC3)nc(O[C@H]3CC[C@@H](n4ccnc4)CC3)c2c1` [Compound 168, 5-(((1s,4s)-4-(1H-imidazol-1-yl)cyclohexyl)oxy)-N-ethyl-7-morpholino-1,6-naphthyridine-3-carboxamide] was tested, and the IC50 (DNA-PK; Table 1) was 10 to 150 nM.
In the case of `CN(C)C(=O)c1cnc2cc(N3CCOCC3)nc(O[C@H]3CC[C@@H](n4ccnc4)CC3)c2c1` [Compound 170, 5-(((1s,4s)-4-(1H-imidazol-1-yl)cyclohexyl)oxy)-N,N-dimethyl-7-morpholino-1,6-naphthyridine-3-carboxamide], the IC50 (DNA-PK; Table 1) is reported as 10 to 150 nM.
`CN(C)C(=O)COc1cnc(NC2CCC(Oc3nc(N4CCOCC4)cc4ncc(N(Cc5ncc([N+](=O)[O-])n5C)S(C)(=O)=O)cc34)CC2)nc1` (stereo not shown) [LFA013, N,N-Dimethyl-2-[2-[[4-[[3-[(1-methyl-5-nitro-imidazol-2-yl)methyl-methylsulfonyl-amino]-7-morpholino-1,6-naphthyridin-5-yl]oxy]cyclohexyl]amino]pyrimidin-5-yl]oxy-acetamide] gave an IC50 (DNA-PK; Table 2) of 10 to 150 nM, an EC50 ([2]; 20 Gy, 5% O2, inner layers, read-out: Prodrug 5% O2 Inner layers EC50) of 10 to 500 nM and an EC50 ([2]; 20 Gy, 5% O2, outer layers, read-out: Prodrug 5% O2 Outer layers EC50) of 1000 to 10000 nM. It also gave an EC50 ([2]; 20 Gy, 20% O2, outer layers, read-out: Prodrug 20% O2 Outer layers EC50) of 1000 to 10000 nM, an EC50 ([2]; value of the (unnamed) effector of the listed prodrug, 20 Gy, 5% O2, inner layers, read-out: Effector 5% O2 Inner layers EC50) of 10 to 500 nM and an IC50 ([1]; Table 2) of 1000 to 10000 nM.
`Cn1c(COC(=O)Nc2cnc3cc(N4CCOCC4)nc(O[C@H]4CC[C@@H](Nc5ncccn5)CC4)c3c2)cnc1[N+](=O)[O-]` [LFA108, (3-methyl-2-nitro-imidazol-4-yl)methyl N-[7-morpholino-5-[4-(pyrimidin-2-ylamino)cyclohexoxy]-1,6-naphthyridin-3-yl]carbamate] showed an IC50 (DNA-PK; Table 2) of 10 to 150 nM, an EC50 ([2]; Homo sapiens, HCT-116, 20 Gy, 5% O2, inner layers, read-out: Prodrug 5% O2 Inner layers EC50) of 10 to 500 nM and an EC50 ([2]; Homo sapiens, HCT-116, 20 Gy, 5% O2, outer layers, read-out: Prodrug 5% O2 Outer layers EC50) of 500 to 1000 nM. For the same molecule, the EC50 ([2]; Homo sapiens, HCT-116, 20 Gy, 20% O2, outer layers, read-out: Prodrug 20% O2 Outer layers EC50) was 1000 to 10000 nM and the IC50 ([1]; Table 2) was 10000 to 30000 nM.
